How the values were obtained:
mice [1] = assay: Adrenaline-antagonizing effect in mice; type: in vivo, male Albino Swiss mice; conditions: Mus musculus, ip, 30 min before adrenaline, mortality checked for 36 hours, read-out: Antiadrenaline activity, % mortality reduction; for responders at 300 mg/kg: dose 300 mg kg^-1 i.p.; for responders at 100 mg/kg: dose 100 mg kg^-1 i.p.; for responders at 50 mg/kg: dose 50 mg kg^-1 i.p.; for responders at 70 mg/kg: dose 70 mg kg^-1 i.p.
Procedure: (d) Adrenaline-antagonizing effect
Groups of ten male Albino Swiss mice, weighing 12-22 g, were intraperitoneally administered either with the esters of the present invention or with saline (control) and, after 30 minutes, with adrenaline (treated) at a dose capable of bringing about death to 100% of the control animals due to ventricular fibrillation and cardiac lesions ensuing from increase in frequency, pressure and oxygen uptake from the myocardium.
Mortality was checked for 36 hours and the effect of the compounds expressed as percentage of surviving animals, is shown in the Table.

rabbit isolated heart = assay: Inotropic effect on rabbit isolated heart (Langendorff) after anoxia; conditions: Oryctolagus cuniculus, 10 min, dose 10^-5 gl^-1, 10 minutes after interruption of the anoxic period, increase against controls
Procedure: Rabbit hearts isolated by the Langendorff method were perfused with oxygenized Ringer solution at 38.2° C. The isometric contractions, electrogardiogram and coronary flow were recorded using a "Battaglia-Rangoni" polygraph. By removing the oxygen from the perfusion fluid, metabolic damage was induced in the cardiac muscle, up to an 80% reduction in the cardiac contractile force.
Under these conditions of prolonged anoxia the aerobic glycolysis of the myocardium is slowed down, accompanied by the storage of acid catabolites due to both the accumulation of pyruvic acid and its conversion to lactic acid which cannot be utilized because of the depression of pyridine enzymes, such as LDH (lactodehydrogenase). This has repercussions on the anaerobic glycolysis affecting an ever increasing number of enzymes, accompanied by a progressive and increasingly critical exhaustion of the myocardium. Thus a whole series of cardiac muscle fatigue levels occurs which can be observed by the behavior of the examined parameters, namely the contractile force, coronary flow, heart rate and cardiac rhythm. As soon as the contractile force was reduced by 80%, the perfusion fluid was once again oxygenized either without adding other compounds (controls) or with the addition of the compounds under examination.
In the Table there are shown the percentage value of increase against the controls.

[2] = Acute toxicity (LD50) in mice; conditions: mouse, in vivo, ip
Description: (a) Acute toxicity (LD50)
Acute toxicity was investigated by using the method disclosed by Weil C. S. in "Tables for convenient calculation of median-effective dose (LD50 or ED50) and instructions in their use", Biometrics, 249-253, 1952.
The tolerance of the compounds under examination was investigated in mice after administration by the intraperitoneal or oral route. […] (see the Table).

mice [3] = assay: Antiarrhythmic (antifibrillatory) effect, aconitine-induced arrhythmia in mice; type: in vivo; conditions: Mus musculus, iv, read-out: Antifibrillatory activity, % reduction
Procedure: (c) Antiarrhythmic effect
In order to evaluate the antiarrhythmic activity of the carnitine derivatives of this invention studied with in vivo tests in addition to and in comparison with the currently employed in vitro tests, the method disclosed by Nwangwu et al. (Arch. Int. Pharmacodyn., 1977, 229, 219) was used.
According to this method an aconitine solution is injected into the caudal vein of mice and the onset time of arrhythmia and tachycardia after 2 to 60 minutes from administration of the compounds under examination is recorded.
The antiarrhythmic activity calculated from the increase in the latency time of the onset of the arrhythmias of the treated animals in comparison with the controls, is illustrated in the Table.

CCOC(C)C(=O)OC(CC(=O)OC(C)C)C[N+](C)(C)C (centres unmarked) [R = 2-ethoxypropionyl; R' = isopropyl] showed a responders at 300 mg/kg (mice [1]) of 50%, an activation at 0.01 µg/mL (rabbit isolated heart) of 50% and an LD50 [2] of 1200 mg/kg. It also gave an inhibition in vivo at 50 mg/kg (mice [3]) of 70%.
COC(C)C(=O)OC(CC(=O)OC(C)C)C[N+](C)(C)C (centres unmarked) [R = 2-methoxypropionyl; R' = isopropyl, 2-methoxy propionyl carnitine isopropyl ester] showed a responders at 100 mg/kg (mice [1]) of 58%, an activation at 0.01 µg/mL (rabbit isolated heart) of 70% and an LD50 [2] of 850 mg/kg. It also gave an inhibition in vivo at 50 mg/kg (mice [3]) of 68%.
CCCCOC(=O)CC(C[N+](C)(C)C)OC(=O)COCC (centres unmarked) [R = ethoxyacetyl; R' = butyl] gave a responders at 100 mg/kg (mice [1]) of 75%, an activation at 0.01 µg/mL (rabbit isolated heart) of 58% and an LD50 [2] of 600 mg/kg. The inhibition in vivo at 40 mg/kg (mice [3]) was 75%.
CCOCC(=O)OC(CC(=O)OCC)C[N+](C)(C)C (centres unmarked) [R = ethoxyacetyl; R' = ethyl] showed a responders at 50 mg/kg (mice [1]) of 50%, an activation at 0.01 µg/mL (rabbit isolated heart) of 68% and an LD50 [2] of 600 mg/kg. For the same compound, the inhibition in vivo at 35 mg/kg (mice [3]) was 65%.
CCOCC(=O)OC(CC(=O)OCC(C)C)C[N+](C)(C)C (centres unmarked) [R = ethoxyacetyl; R' = isobutyl, ethoxyacetyl carnitine isobutyl ester] showed a responders at 70 mg/kg (mice [1]) of 50%, an activation at 0.01 µg/mL (rabbit isolated heart) of 70% and an LD50 [2] of 750 mg/kg. For the same compound, the inhibition in vivo at 10 mg/kg (mice [3]) was 70%.
CCOCC(=O)OC(CC(=O)OC(C)C)C[N+](C)(C)C (centres unmarked) [R = ethoxyacetyl; R' = isopropyl] showed a responders at 100 mg/kg (mice [1]) of 60%, an activation at 0.01 µg/mL (rabbit isolated heart) of 72% and an LD50 [2] of 700 mg/kg. It also gave an inhibition in vivo at 50 mg/kg (mice [3]) of 70%.
Work on CCOCC(=O)OC(CC(=O)OC)C[N+](C)(C)C (centres unmarked) [R = ethoxyacetyl; R' = methyl] yielded a responders at 300 mg/kg (mice [1]) of 75%, an activation at 0.01 µg/mL (rabbit isolated heart) of 55% and an LD50 [2] of 1100 mg/kg. For the same compound, the inhibition in vivo at 150 mg/kg (mice [3]) was 90%.
With CCCOC(=O)CC(C[N+](C)(C)C)OC(=O)COCC (centres unmarked) [R = ethoxyacetyl; R' = propyl] the responders at 100 mg/kg (mice [1]) was 75%, the activation at 0.01 µg/mL (rabbit isolated heart) was 49% and the LD50 [2] was 620 mg/kg. The inhibition in vivo at 50 mg/kg (mice [3]) was 75%.
In the case of CCCCOC(=O)CC(C[N+](C)(C)C)OC(=O)COC (centres unmarked) [R = methoxyacetyl; R' = butyl], the responders at 100 mg/kg (mice [1]) is reported as 70%, the activation at 0.01 µg/mL (rabbit isolated heart) is reported as 55% and the LD50 [2] is reported as 550 mg/kg. The inhibition in vivo at 40 mg/kg (mice [3]) was 75%.
CCOC(=O)CC(C[N+](C)(C)C)OC(=O)COC (centres unmarked) [R = methoxyacetyl; R' = ethyl] showed a responders at 70 mg/kg (mice [1]) of 70%, an activation at 0.01 µg/mL (rabbit isolated heart) of 58% and an LD50 [2] of 550 mg/kg. For the same compound, the inhibition in vivo at 50 mg/kg (mice [3]) was 70%.
For COCC(=O)OC(CC(=O)OCC(C)C)C[N+](C)(C)C (centres unmarked) [R = methoxyacetyl; R' = isobutyl, methoxyacetyl carnitine isobutyl ester], the responders at 300 mg/kg (mice [1]) was 60%, the activation at 0.01 µg/mL (rabbit isolated heart) was 79% and the LD50 [2] was 690 mg/kg. It also gave an inhibition in vivo at 75 mg/kg (mice [3]) of 85%.
For COCC(=O)OC(CC(=O)OC(C)C)C[N+](C)(C)C (centres unmarked) [R = methoxyacetyl; R' = isopropyl], the responders at 50 mg/kg (mice [1]) was 75%, the activation at 0.01 µg/mL (rabbit isolated heart) was 55% and the LD50 [2] was 800 mg/kg. For the same compound, the inhibition in vivo at 50 mg/kg (mice [3]) was 80%.
COCC(=O)OC(CC(=O)OC)C[N+](C)(C)C (centres unmarked) [R = methoxyacetyl; R' = methyl] gave a responders at 450 mg/kg (mice [1]; dose 450 mg kg^-1 i.p.) of 70%, an activation at 0.01 µg/mL (rabbit isolated heart) of 72% and an LD50 [2] of 1200 mg/kg. It also gave an inhibition in vivo at 300 mg/kg (mice [3]) of 75%.
For CCCOC(=O)CC(C[N+](C)(C)C)OC(=O)COC (centres unmarked) [R = methoxyacetyl; R' = propyl], the responders at 50 mg/kg (mice [1]) was 75%, the activation at 0.01 µg/mL (rabbit isolated heart) was 78% and the LD50 [2] was 650 mg/kg. It also gave an inhibition in vivo at 50 mg/kg (mice [3]) of 100%.
